Experimental data reported in patent US5760065A, “Anti-HIV agent” (priority 1994, dated 1998).

How the values were obtained:
[1] = literature, qualitative; cited from earlier work
[2] = literature, qualitative; cited from earlier work; remark: listed apart in the source
actin = details: 67th Annual Meeting of the Japanese Pharmacological Society (1994); cited from earlier work
smooth muscle = details: 113th Meeting of the Japanese Society of Veterinary Science (1992); cited from earlier work
HIV (type IIIB) = experiment: HIV proliferation inhibitory activity: HIV budding from infected U937 cells, evaluated by reverse transcriptase activity; format: cell-based; details: 15 min with compound, then 6 h culture
Experimental: (§1) U937 cells (derived from human lymphocytes) infected with HIV (type IIIB) were cultured in RPMI-1640 medium (Biocell Laboratories) containing Test Compound (I) and 10% fetal bovine serum (FBS) at 37° C. for 15 minutes in a CO2 -incubator. The cultured U937 cells were washed with RPMI-1640 medium and then cultured in RPMI-1640 medium containing 10% FBS at 37° C. for 6 hours in the CO2 -incubator. The degree of inhibition of HIV budding by the test compound was evaluated by the reverse transcriptase activity in a unit culture. Cytotoxicity test was carried out by the MTT method [J. Immunol. Method., 65, 55 (1983)].

in vitro = format: cell-based; details: human, u937 cells, MTT method
Experimental: as §1

platelet = details: 67th Annual Meeting of the Japanese Pharmacological Society (1994); cited from earlier work
[3] = literature, qualitative; cited from earlier work; remark: listed apart in the source

SMILES	cytotoxicity [1]	antifungal activity [2]	other results
COC(CC1OC(=O)CC(O)CCCC(=O)C(C)C(OC)c2coc(n2)-c2coc(n2)-c2coc(n2)/C=C/CCC1C)C(C)CCC(=O)C(C)C(OC)C(C)/C=C/N(C)C=O (centres unmarked) [33-Methyldihydrohalichondramide]	have cytotoxicity	–	–
COC(CC1OC(=O)CC(O)CCCC(=O)C(C)C(OC)c2coc(n2)-c2coc(n2)-c2coc(n2)/C=C/CCC1C)C(C)CCC(=O)C(C)C(C/C=C/N(C)C=O)OC (centres unmarked) [Dihydrohalichondramide]	have cytotoxicity	antifungal activity	–
COC(CC1OC(=O)CC(O)C/C=C/C(=O)C(C)C(OC)c2coc(n2)-c2coc(n2)-c2coc(n2)/C=C/CCC1C)C(C)CCC(=O)C(C)C(C/C=C/N(C)C=O)OC (centres unmarked) [Halichondramide]	have cytotoxicity	antifungal activity	–
COC(CC1OC(=O)CC(O)CC=CC(=O)C(C)C(OC)c2coc(n2)-c2coc(n2)-c2coc(n2)/C=C/CCC1C)C(C)CCC(=O)C(C)C(CCC(=O)O)OC (centres unmarked) [Isohalichondramide (carboxylic acid form)]	have cytotoxicity	antifungal activity	–
COC(=O)/C=C/CCC(C)C(CC(OC)C(C)CCC(=O)C(C)C(C/C=C/N(C)C=O)OC)OC(=O)CC(O)CC=CC(=O)C(C)C(OC)c1coc(-c2coc(C(N)=O)n2)n1 (centres unmarked) [Isohalichondramide (ester form)]	have cytotoxicity	antifungal activity	–
COC(CC1OC(=O)CC(O)CC=CC(=O)C(C)C(OC)c2coc(n2)-c2coc(n2)C(=O)NC(=O)/C=C/CCC1C)C(C)CCC(=O)C(C)C(C/C=C/N(C)C=O)OC (centres unmarked) [Isohalichondramide (imide form)]	have cytotoxicity	antifungal activity	–
COC(CC1OC(=O)CC(O)CC=CC(=O)C(C)C(OC)c2coc(n2)-c2coc(n2)-c2coc(n2)/C=C/CCC1C)C(C)CCC(=O)C(C)C(C/C=C/N(C)C=O)OC (centres unmarked) [Isohalichondramide]	have cytotoxicity	antifungal activity	–
COC(CC1OC(=O)CC(O)CC(O)CC(=O)C(C)C(OC)c2coc(n2)-c2coc(n2)-c2coc(n2)/C=C/CCC1C)C(C)CCC(=O)C(C)C(C/C=C/N(C)C=O)OC (centres unmarked) [Jaspisamide A]	have cytotoxicity	–	–
COC(CC1OC(=O)CC(O)C/C=C/C(=O)C(C)C(OC)c2coc(n2)-c2coc(n2)-c2coc(n2)/C=C/CC(O)C1C)C(C)CCC(=O)C(C)C(C/C=C/N(C)C=O)OC (centres unmarked) [Jaspisamide B]	have cytotoxicity	–	–
COC(CC1OC(=O)CC(O)C/C=C/C(=O)C(C)C(OC)c2coc(n2)-c2coc(n2)-c2coc(n2)/C=C/CCC1C)C(C)CCC(=O)C(C)C(OC)C(C)/C=C/N(C)C=O (centres unmarked) [Jaspisamide C]	have cytotoxicity	–	–
COC(CC1OC(=O)CC(OC(N)=O)CCCC(O)C(CO)C(OC)c2coc(n2)-c2coc(n2)-c2coc(n2)/C=C/CC(OC)C1C)C(C)CCC(=O)C(C)C(OC)C(C)/C=C/N(C)C=O (centres unmarked) [Kabiramide A]	have cytotoxicity	–	–
COC(CC1OC(=O)CC(OC(N)=O)CCCC(O)C(C)C(OC)c2coc(n2)-c2coc(n2)-c2coc(n2)/C=C/CC(O)C1C)C(C)CCC(=O)C(C)C(OC)C(C)/C=C/N(C)C=O (centres unmarked) [Kabiramide B]	have cytotoxicity	–	–
COC(CC1OC(=O)CC(OC(N)=O)CCCC(O)C(C)C(OC)c2coc(n2)-c2coc(n2)-c2coc(n2)/C=C/CC(OC)C1C)C(C)CCC(=O)C(C)C(OC)C(C)/C=C/N(C)C=O (centres unmarked) [Kabiramide C]	–	has antifungal activity	–
COC(CC1OC(=O)CC(O)CCCC(O)C(C)C(OC)c2coc(n2)-c2coc(n2)-c2coc(n2)/C=C/CC(OC)C1C)C(C)CCC(=O)C(C)C(OC)C(C)/C=C/N(C)C=O (centres unmarked) [Kabiramide D]	have cytotoxicity	–	–
COC(CC1OC(=O)CC(OC(C)=O)CCCC(O)C(C)C(OC)c2coc(n2)-c2coc(n2)-c2coc(n2)/C=C/CC(OC)C1C)C(C)CCC(=O)C(C)C(OC)C(C)/C=C/N(C)C=O (centres unmarked) [Kabiramide E]	have cytotoxicity	–	–
COC(CC1OC(=O)CC(O)C/C=C/C(=O)C(C)C(OC)c2coc(n2)-c2coc(n2)-c2coc(n2)/C=C/CC(OC)C1C)C(C)CCC(=O)C(C)C(OC(C)=O)C(C)/C=C/N(C)C=O (centres unmarked) [Mycalolide A]	have cytotoxicity	antifungal activity	–
COCC(OC)C(=O)OC(CCC(C)C(CC1OC(=O)CC(O)C/C=C/C(=O)C(C)C(OC)c2coc(n2)-c2coc(n2)-c2coc(n2)/C=C/CC(OC)C1C)OC)C(C)C(OC(C)=O)C(C)/C=C/N(C)C=O (centres unmarked) [Mycalolide B]	have cytotoxicity	antifungal activity	actin polymerization inhibitory activity (actin): actin polymerization inhibitory activity; inhibitory activity against contraction of smooth muscle (smooth muscle): inhibitory activity against contraction of smooth muscle; inhibition at 0.1 µM (HIV (type IIIB); Human immunodeficiency virus 1, U-937, 10^-7 M): 71.4%; inhibition at 0.01 µM (HIV (type IIIB); Human immunodeficiency virus 1, U-937, 10^-8 M): 57.1%; inhibition at 0.001 µM (HIV (type IIIB); Human immunodeficiency virus 1, U-937, 10^-9 M): 28.6%; inhibition at 0.0001 µM (HIV (type IIIB); Human immunodeficiency virus 1, U-937, 10^-10 M): 14.3%; cytotoxicity at 0.1 µM (in vitro; 10^-7 M): 4.3%; cytotoxicity at 0.01 µM (in vitro; 10^-8 M): 2.2%; cytotoxicity at 0.001 µM (in vitro; 10^-9 M): 1.5%; cytotoxicity at 0.0001 µM (in vitro; 10^-10 M): 0.7%; anti-platelet activity (platelet): anti-platelet activity
COC(C)C(=O)OC(CCC(C)C(CC1OC(=O)CC(O)C/C=C/C(=O)C(C)C(OC)c2coc(n2)-c2coc(n2)-c2coc(n2)/C=C/CC(OC)C1C)OC)C(C)C(OC(C)=O)C(C)/C=C/N(C)C=O (centres unmarked) [Mycalolide C]	have cytotoxicity	antifungal activity	–
COC(CC1OC(=O)CC(O)CCCC(O)C(C)C(OC)c2coc(n2)-c2coc(n2)-c2coc(n2)/C=C/CCC1C)C(C)CCC(=O)C(C)C(OC)C(C)/C=C/N(C)C=O (centres unmarked) [Tetrahydrohalichondramide]	has cytotoxicity	antifungal activity	–
COC(CC1OC(=O)CC(O)CCCC(=O)CC(C)c2coc(n2)-c2coc(n2)-c2coc(n2)/C=C/CC(OC)C1C)C(C)CCC(=O)C(C)C(OC(C)=O)C(C)/C=C/N(C)C=O (centres unmarked) [Ulpualide A]	have cytotoxicity	–	antibacterial activity [3]: antibacterial activity
COCC(OC)C(=O)OC(CCC(C)C(CC1OC(=O)CC(O)CCCC(=O)CC(C)c2coc(n2)-c2coc(n2)-c2coc(n2)/C=C/CC(OC)C1C)OC)C(C)C(OC(C)=O)C(C)/C=C/N(C)C=O (centres unmarked) [Ulpualide B]	have cytotoxicity	–	antibacterial activity [3]: antibacterial activity
